Patent US10822374B2, “Cancer therapies and diagnostics” (Dana-Farber Cancer Institute, Inc., priority 2010, dated 2020)
“Also recorded” adds a separate entry of the source. Where two headings read alike, the source gives them in different places. Positions of bridges follow the written chain, without caps; N, C: chain ends. Non-standard residues stand in square brackets, D forms with d. No end group written: not given here. R8 = C=CCCCCCC[C@@](C)(N)C(=O)O; S5 = C=CCCC[C@](C)(N)C(=O)O

Experiments:
HDMX = biological target: T1, HDMX (Homo sapiens, UniProt O15151); test: Anti-FITC pull down in SJSA-X cells, HDMX western; format: cell-based; settings: 15 μM, 12 hours
T1 construct: expressed in transfected cells; host or cells: SJSA-X (SJSA-1 engineered to overexpress HDMX)
T1 sequence (O15151 1-490): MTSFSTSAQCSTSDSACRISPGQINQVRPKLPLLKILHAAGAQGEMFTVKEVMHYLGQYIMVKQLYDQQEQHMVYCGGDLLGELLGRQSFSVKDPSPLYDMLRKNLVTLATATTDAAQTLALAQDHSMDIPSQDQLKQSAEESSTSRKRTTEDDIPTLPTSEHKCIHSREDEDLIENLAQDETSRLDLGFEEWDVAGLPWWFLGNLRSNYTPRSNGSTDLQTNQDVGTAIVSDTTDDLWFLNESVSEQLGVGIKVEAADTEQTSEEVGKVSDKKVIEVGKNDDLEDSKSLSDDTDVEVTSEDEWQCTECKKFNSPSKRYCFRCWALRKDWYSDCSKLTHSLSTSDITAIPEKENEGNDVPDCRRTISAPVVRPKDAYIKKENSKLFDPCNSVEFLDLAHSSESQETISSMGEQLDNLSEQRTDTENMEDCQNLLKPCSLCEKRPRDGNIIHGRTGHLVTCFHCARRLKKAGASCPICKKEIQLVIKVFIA

SJSA-X cells [1] = test: FITC-peptide detection in SJSA-X cellular lysates (cell penetration); settings: 12 hours
Protocol: Cells were then lysed and anti-FITC pull down was performed, followed by HDM2 and HDMX western analyses.

HDM2 = biological target: T2, HDM2 (Homo sapiens, UniProt Q00987); test: Anti-FITC pull down in SJSA-X cells, HDM2 western; format: cell-based; settings: 15 μM, 12 hours
T2 construct: endogenous in cells; host or cells: SJSA-X (derivative of SJSA-1 osteosarcoma)

p53 [2] = test: p53 western of JEG-3 cellular extracts (input); format: cell-based, human; settings: JEG-3, 20 μM, 6 hours
Protocol: ; Bethyl Laboratories) and western analysis of electrophoresed protein was conducted using p53 (DO-1; EMD Chemicals or FL-393; Santa Cruz Biotechnology), HDMX (MDMX-82; Abcam), and HAUSP (anti-USP7, Bethyl Labs) antibodies, and Western Lightning chemiluminescence reagent (PerkinElmer). […]

JEG-3 xenografts = test: JEG-3 murine xenograft tumor growth; settings: 10 mg/kg i.v. once daily for 4 days
SJSA-X cells [3] = test: CellTiter-Glo viability, SJSA-X; format: cell-based, human; settings: SJSA-X (HDM2++/HDMX++), 24 h
Protocol: (§1) All viability assays were performed in at least triplicate.

HCT116 cells = test: CellTiter-Glo viability, HCT116; format: cell-based, human; settings: HCT116 (HDM2+/HDMX+), 24 h
Protocol: as §1

JEG-3 cells [4] = test: CellTiter-Glo viability, JEG-3; format: cell-based, human; settings: JEG-3 (HDM2−/HDMX++), 24 h
Protocol: as §1

[5] = test system: p53 transcriptional targets HDM2, p21, MIC-1; test: qPCR of p53 transcriptional targets in JEG-3 cells; settings: JEG-3, 20 μM, 6 h
Protocol: qPCR studies were performed as follows. […] Total RNA was reverse transcribed to cDNA using Superscript III reverse transcriptase (Invitrogen). The derived cDNA was employed as the substrate to measure relative transcript levels by qRT-PCR on a PRISM 7700 system using SYBR Green PCR Master Mix (Applied Biosystems). Primers specific for HDM2, p21, MIC-1, and the UBB control were employed. Triplicate reactions were prepared in 96-well optical PCR plates.

SJSA-1 cells = test: CellTiter-Glo viability, SJSA-1; format: cell-based, human; settings: SJSA-1 (HDM2++/HDMX−), 24 h
Protocol: as §1

p53 [6] = test: p53 western in MCF-7 cells; format: cell-based, human; settings: MCF-7, 20 μM
Protocol: FIG. 8 is an image of an immunoblot showing that pharmacologic induction of p53-HDMX complexes sensitizes Nutlin-3-resistant cancer cells to HDMX inhibition. […]. Cells were exposed to MG-132 at 10 μM for 6 hours to induce HDMX-p53 complex formation. Cellular extracts (input-left side immunoblot) and anti-HDMX immunoprecipitates (IP:HDMX-right side immunoblot) were analyzed by SDS-PAGE and Western blotting. Levels of p53 and HAUSP are shown.

JEG-3 cells [7] = test: Caspase-3/7 activation in JEG-3 cells; format: cell-based, human; settings: JEG-3, 0.3-10 μM, 12 h
Protocol: Apoptosis studies were performed as follows.

[8] = test system: WS1 normal human fibroblasts; test: CellTiter-Glo viability, WS1 fibroblasts
Protocol: (§2) Finally, WS1 normal human fibroblasts were tested to evaluate relative toxicity in tumor versus non-transformed cells.
(§3) Cultured cells were maintained in the appropriate media (SJSA-1, SJSA-X, SJSA-DD, A431 (DMEM); JEG-3, MCF-7, WS1 (EMEM); HCT116 (McCoy's 5A)) supplemented with fetal calf serum and penicillin/streptomycin. […] Viability was assayed by addition of CellTiter-Glo™ chemiluminescence reagent according to the manufacturer's protocol (Promega). Luminescence was measured using a Spectramax M5 microplate reader (Molecular Devices). […] All viability assays were performed in at least triplicate.

MCF-7 cells = test: CellTiter-Glo viability, MCF-7; format: cell-based, human; settings: MCF-7 (HDM2+/HDMX+), 24 h
Protocol: as §1

SJSA-DD cells = test: CellTiter-Glo viability, SJSA-DD; format: cell-based, human; settings: SJSA-1 overexpressing dominant negative p53 (SJSA-DD), 24 h
Protocol: as §2, §3

Proteolytic stability = format: in vitro ADME
Description: The amide bond of the peptide backbone is susceptible to hydrolysis by proteases, thereby rendering peptidic compounds vulnerable to rapid degradation in vivo. Peptide helix formation, however, typically buries the amide backbone and therefore may shield it from proteolytic cleavage. The peptidomimetic macrocycles of the present invention may be subjected to in vitro trypsin proteolysis to assess for any change in degradation rate compared to a corresponding uncrosslinked polypeptide. For example, the peptidomimetic macrocycle and a corresponding uncrosslinked polypeptide are incubated with trypsin agarose and the reactions quenched at various time points by centrifugation and subsequent HPLC injection to quantitate the residual substrate by ultraviolet absorption at 280 nm. Briefly, the peptidomimetic macrocycle and peptidomimetic precursor (5 mcg) are incubated with trypsin agarose (Pierce) (S/E~125) for 0, 10, 20, 90, and 180 minutes. Reactions are quenched by tabletop centrifugation at high speed; remaining substrate in the isolated supernatant is quantified by HPLC-based peak detection at 280 nm.

[9] = test system: bearing the R273H p53 mutation; test: CellTiter-Glo viability, A431; format: cell-based, human; settings: A431, inactivating p53 point mutation, 24 h
Protocol: as §2, §3

[10] = test system: HCT116 cells deficient in p53; test: CellTiter-Glo viability, HCT116 deficient in p53; format: cell-based, human; settings: HCT116 with genetic deletion of p53, 24 h
Protocol: as §2, §3

HDM2, p21, and MIC-1 = test: qPCR of p53 targets in excised JEG-3 tumors; settings: tumors excised day 5
[11] = test system: RKO or SJSA-1 cancer cells; test: Cell viability assays, RKO or SJSA-1 cancer cells; format: cell-based
full-length HDMX = biological target: T3, full-length HDMX (Homo sapiens, UniProt O15151); test: Fluorescence polarization direct binding to HDMX; settings: FITC-labeled peptides, same dose ranges
T3 construct: plasmid encoding full-length HDMX with N-terminal thioredoxin, S, and hexahistidine tags; thioredoxin (N, cleaved yes); S-tag (N, cleaved yes); hexahistidine (N, cleaved yes); made in house; host or cells: Escherichia coli BL21 (DE3) pLysS, pET32-LIC vector
T3 sequence (O15151 1-490): T1 sequence (O15151 1-490)
Protocol: Fluorescence polarization was then measured at equilibrium on a SpectraMax M5 microplate reader (Molecular Devices).

T2 sequence (Q00987 whole entry): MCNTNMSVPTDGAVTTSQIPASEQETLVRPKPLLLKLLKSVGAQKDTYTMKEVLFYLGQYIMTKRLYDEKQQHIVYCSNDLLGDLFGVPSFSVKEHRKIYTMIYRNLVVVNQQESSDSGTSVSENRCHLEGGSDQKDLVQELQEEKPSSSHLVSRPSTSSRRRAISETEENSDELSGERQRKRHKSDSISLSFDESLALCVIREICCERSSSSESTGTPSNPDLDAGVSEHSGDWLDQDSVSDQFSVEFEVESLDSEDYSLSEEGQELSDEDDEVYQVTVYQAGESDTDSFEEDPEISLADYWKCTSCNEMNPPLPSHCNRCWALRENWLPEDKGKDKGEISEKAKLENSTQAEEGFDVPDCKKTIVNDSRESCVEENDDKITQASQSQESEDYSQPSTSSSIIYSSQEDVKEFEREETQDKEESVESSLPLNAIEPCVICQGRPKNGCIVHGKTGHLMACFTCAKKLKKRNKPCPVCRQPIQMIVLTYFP

Compound | p53 levels (p53 [2]) | tumor growth (JEG-3 xenografts) | cell viability (SJSA-X cells [3]) | cell viability (HCT116 cells) | cell viability (JEG-3 cells [4]) | upregulation of p53 transcriptional targets (mRNA) compared to vehicle [5] | cell viability (SJSA-1 cells) | caspase-3/7 activation (JEG-3 cells [7]) | cell viability (MCF-7 cells) | cell viability (SJSA-DD cells) | cell viability [9] | cell viability [10] | other results
CC(C)C[C@@H]1NC(=O)[C@H](CCCNC(=N)N)NC(=O)[C@H](Cc2c[nH]c3ccccc23)NC(=O)[C@H](CC(C)C)NC(=O)[C@H](CC(N)=O)NC(=O)[C@](C)(NC(=O)[C@H](Cc2ccccc2)NC(=O)[C@@H](NC(=O)[C@H](CCC(N)=O)NC(=O)[C@H](CCC(N)=O)NC(=O)[C@H](CO)NC(=O)[C@H](CCC(N)=O)NC(=O)CCNC(=S)Nc2ccc3c(c2)C(=O)OC32c3ccc(O)cc3Oc3cc(O)ccc32)[C@@H](C)O)CCCCCCC=CCCC[C@@](C)(C(=O)N[C@@H](CCC(N)=O)C(=O)N[C@@H](CC(N)=O)C(N)=O)NC(=O)[C@H](CC(C)C)NC1=O [FITC-SAH-p53-8] |  |  |  |  |  |  |  |  |  |  |  |  | co-immunoprecipitation of native HDMX (HDMX): specifically co-immunoprecipitated; penetration of intact SJSA-X cells (SJSA-X cells [1]): efficiently penetrated intact SJSA-X cells; co-immunoprecipitation of native HDM2 (HDM2): specifically co-immunoprecipitated
COc1ccc(C2=N[C@@H](c3ccc(Cl)cc3)[C@@H](c3ccc(Cl)cc3)N2C(=O)N2CCNC(=O)C2)c(OC(C)C)c1 [Nutlin-3, reference compound] | increase in p53 levels | not affected | little to no response; also recorded: ineffective as a single agent | modestly sensitive | little to no response; also recorded: most resistant | 1.5-4 fold | very sensitive | little effect | modestly sensitive | completely insensitive |  |  | p53 levels (p53 [6]): elevate p53 levels; viability of normal human fibroblasts ([8]; WS1, 24 h): no impact
CC(=O)N[C@@H](CC(C)C)C(=O)N[C@@H](CO)C(=O)N[C@@H](CCC(N)=O)C(=O)N[C@@H](CCC(=O)O)C(=O)N[C@H](C(=O)N[C@@H](Cc1ccccc1)C(=O)N[C@]1(C)CCCCCCC=CCCC[C@@](C)(C(=O)N[C@@H](CCC(=O)O)C(=O)N[C@@H](CC(N)=O)C(N)=O)NC(=O)[C@H](CC(C)C)NC(=O)[C@H](CC(C)C)NC(=O)[C@H](CCCCN)NC(=O)[C@H](Cc2c[nH]c3ccccc23)NC(=O)[C@H](CC(C)C)NC(=O)[C@H](CC(=O)O)NC1=O)[C@@H](C)O [SAH-p53-4] |  |  |  |  |  |  |  |  |  |  |  |  | proteolytic stability (Proteolytic stability): improved proteolytic stability
SAH-p53-8: i, i+7 hydrocarbon-stapled p53 transactivation domain peptide (SEQ ID NO: 10), S20 and P27 replaced with olefinic residues | increase in p53 levels | significantly suppressed tumor growth | dose-dependent inhibition of cell viability; also recorded: restoring susceptibility | dose-dependent inhibition of cell viability | dose-dependent inhibition of cell viability; also recorded: most sensitive | 5-14 fold | dose-dependent inhibition of cell viability | dose-responsive activation of caspase-3/7 | dose-dependent inhibition of cell viability | completely insensitive | similarly unaffected | completely insensitive | reduction in tumor burden compared to vehicle and Nutlin-3 (JEG-3 xenografts; 5-day evaluation): 37-46%; transcriptional activation of HDM2, p21, and MIC-1 in tumors (HDM2, p21, and MIC-1): statistically significant transcriptional activation; cell viability [11]: promoted cell death
SAH-p53-8F19A: negative control peptide: SAH-p53-8 with F19 substituted by alanine (SEQ ID NO: 13) (QSQQTA[R8]NLWRLL[S5]QN; staple 7-14) |  |  | inactive | inactive | inactive |  | inactive |  | inactive | inactive | inactive | inactive | viability of normal human fibroblasts [8]: inactive; interaction with HDMX (full-length HDMX): no interaction
